System: C57BL/6 mice
Assay: Serum hGH in adenoviral infected mice after RU486 (radio-immunoassay)
Format: in vivo, mouse
Experimental: RU486 (250 μg/kg) was administered every second day after infection for a period of two weeks as indicated by arrows. Mice were bled at different time points and serum hGH was analyzed by radio-immunoassay. Mice 1 and 2 received intraperitoneal injections (IP) of RU486; Mouse 3 (−RU486) received sesame oil. hGH serum levels are shown as μg/ml.
Mice infected for two weeks with the regulatable adenoviral construct hGHGLp65 were induced with […] RU486 as indicated by an arrow. 3, 6, 12, 24, 48, 72, 120 and 192 hours after RU486 administration blood was drawn from the mice, and hGH was measured in the serum by a radio-immunoassay. hGH serum levels of individual mice are shown in μg/ml.
Mice infected with hGH-GLp65 or hGH-H-GLp65 adenoviral vectors were induced 3 times with 250 μg/kg RU486 over a time period of 50 Days. hGH was measured prior to, 12 hours after, and 7 days after RU486 administration. […] Serum levels of hGH are shown in μg/ml.
hGH analysis in adenoviral infected mice. […] Serum hGH levels were detected using a radio-immunoassay. […]
To investigate the kinetics of the regulatory system, mice received a single RU486 administration two weeks after the initial infection and serum hGH levels were measured at different time intervals. […]

CC#C[C@]1(O)CC[C@H]2[C@@H]3CCC4=CC(=O)CCC4=C3[C@@H](c3ccc(N(C)C)cc3)C[C@@]21C [RU486, mifepristone]
doses of RU486 needed for induction (induction of transgene in the regulatory system): 0.1 to 0.5 mg/kg | hGH induction with oral versus I.P. RU486 (oral RU486 administration compared with intraperitoneal): comparable

From patent publication US20050196751A1, “Adenoviral vector-mediated delivery of modified steroid hormone receptors and related products and methods” (priority 1998, published 2005)
